Source: ChEMBL document CHEMBL4813937, “Jatrophane Diterpenoids from Euphorbia peplus as Multidrug Resistance Modulators with Inhibitory Effects on the ATR-Chk-1 Pathway” (J Nat Prod, 2021)
The source made the active and inactive calls. The calls are words filed in the database; no cut-off is given here.

System: A549
Experiment: Induction of apoptosis in human A549 cells assessed as increase in PARP cleavage at 25 uM incubated for 48 hrs by Western blotting analysis
Type: functional, cell-based
With `CC[C@@]1(O)C(=O)OCc2c1cc1n(c2=O)Cc2cc3ccccc3nc2-1` the Activity was “inactive”.

System: not listed separately
Experiment: Inhibition of ATR/Chk1 pathway in human A549 cells assessed as suppression of […]-induced phosphorylation of Chk1 on serine-345 residue at 20 uM incubated for 12 hrs by Western blotting analysis
Type: cell-based
With `C=C1[C@H](OC(C)=O)[C@H]2[C@@H](OC(=O)c3ccccc3)[C@](C)(O)C[C@]2(O)C(=O)[C@@H](C)/C=C/C(C)(C)C(=O)[C@H](OC(C)=O)[C@H]1OC(C)=O` the inhibition was “Active”. With `C=C1[C@H](OC(C)=O)[C@@H](OC(C)=O)[C@@H](OC(C)=O)C(C)(C)/C=C/[C@H](C)[C@H](OC(C)=O)[C@@]2(O)C[C@@](C)(OC(C)=O)[C@H](OC(=O)c3ccccc3)[C@@H]2[C@H]1OC(C)=O` the inhibition was “Active”. With `C=C1[C@H](OC(C)=O)[C@H]2[C@@H](OC(=O)c3ccccc3)[C@](C)(OC(C)=O)C[C@]2(O)C(=O)[C@@H](C)/C=C/C(C)(C)C(=O)[C@H](OC(C)=O)[C@H]1OC(C)=O` the inhibition was “Active”. For `C=C1[C@H](OC(=O)C(C)C)[C@@H](OC(C)=O)[C@@H](OC(C)=O)C(C)(C)/C=C/[C@H](C)[C@H](OC(C)=O)[C@@]2(O)C[C@@](C)(OC(C)=O)[C@H](OC(=O)c3ccccc3)[C@@H]2[C@H]1OC(C)=O`, the inhibition was “Active”. For `C=C1[C@H](OC(C)=O)CC(=O)C(C)(C)/C=C/[C@H](C)C(=O)[C@@]2(O)C[C@@](C)(O)[C@H](OC(=O)c3ccccc3)[C@@H]2[C@H]1OC(C)=O`, the inhibition was “Active”.
